Source: patent US20240398737A1, “FUNCTIONALIZED LONG-CHAIN HYDROCARBON MONO- AND DI-CARBOXYLIC ACIDS AND DERIVATIVES THEREOF, AND THEIR USE FOR THE PREVENTION OR TREATMENT OF DISEASE” (Espervita Therapeutics, Inc., priority 2021, published 2024)
Values joined by “and” are separate entries in the source; they are usually repeats but may differ in a detail not shown here. Equal entries are not always repeated.

How the values were obtained:
Assay type in all cases: biochemical
[1] = target: GSK3b (Homo sapiens (Human), UniProt P49841); experiment: Wild type kinase screen: GSK3b; conditions: compound at 10 μM, 10 μM ATP, Data 1 and Data 2 duplicates
[2] = target: MELK (Homo sapiens (Human), UniProt Q14680); experiment: Wild type kinase screen: MELK; conditions: compound at 10 μM, 10 μM ATP, Data 1 and Data 2 duplicates
[3] = target: CAMK2g (Homo sapiens (Human), UniProt Q13555); experiment: Wild type kinase screen: CAMK2g; conditions: compound at 10 μM, 10 μM ATP, Data 1 and Data 2 duplicates
[4] = target: Human ACC1 (Homo sapiens (Human), UniProt Q13085); experiment: ACC1 enzymatic assay (ADP-Glo); conditions: recombinant human ACC1 5 nM; 10 concentrations from 300 μM; Runs 1-3; read-out: Compound IC50 (M) ACC1
Procedure: (§1) Human ACC1 (Cat #50202 Lot #120830) and ACC2 (Cat #50201 Lot #160217) were obtained from BPS Biosciences, San Diego, CA 92121. Human ACC1 had C-terminal flag and His-tags with a MW of 270 KDa after purification from Baculovirus infected Sf9 cell expression system and came as a solution in 50 mM Tris-HCl, pH 8.0, 500 mM NaCl, 10% glycerol, 1 mM DTT, 100 μg/ml FLAG peptide with 70% purity. The stock concentration was 0.25 mg/ml corresponding to 0.926 μM. Human ACC2 was also purified from Baculovirus infected Sf9 expression system. […] The stock concentration was 0.1 mg/ml corresponding to 0.36 μM. The assay buffer for measuring the activity of ACC contained: 30 mM HEPES (pH 7.4), 2 mM MgCl2, 0.01% Brij35, 2 mM DTT, 1% DMSO (solvent for compound). For ACC1 and ACC2 assays, the following concentrations of substrate and cofactors were used: 12 mM NaHCO3, 10 μM acetyl CoA, 10 μM ATP, and 2 mM K-citrate. The recombinant human enzyme was used at 5 nM for ACC1 and 1 nM for ACC2. In brief, enzyme alone in the above buffer without substrate was used for background. All test materials were dissolved in 100% DMSO using acoustic technology (Echo550). The prepared solution was preincubated for 15 min followed by the addition of 5 μL/well of ADP standard. ATP was then added to start the reaction. The assay contents were spun and briefly shaken followed by incubation at room temperature for 1 h. At the end of completion of assay, 5 μL of ADP-Glo was added to each well to stop the reaction. The contents were mixed, spun and incubated at room temperature for 40 min followed by the addition of 10 μL/well of ADP detection reagent. The contents were spun, mixed and covered with plastic to measure luminescence. […] The light generated, measured in a luminometer, correlates to the amount of ADP generated in the ACC assay, which is indicative of ACC activity.
(§2) The enzyme concentrations for ACC1 and ACC2 were 5 nM and 1 nM, respectively.
Data represent nM or μM ADP produced, % Activity (relative to no inhibitor controls), and curve fits were performed by GraphPad Prism software. […]

[5] = target: FLT1/VEGFR1 (Homo sapiens (Human), UniProt P17948); experiment: Wild type kinase screen: FLT1/VEGFR1; conditions: compound at 10 μM, 10 μM ATP, Data 1 and Data 2 duplicates
[6] = target: Human ACC2 (Homo sapiens (Human), UniProt O00763); experiment: ACC2 enzymatic assay (ADP-Glo); conditions: recombinant human ACC2 1 nM; 10 concentrations from 300 μM; Runs 1-3; read-out: Compound IC50 (M) ACC2
Procedure: as §1, §2
Data represent nM or μM ADP produced, % Activity (relative to no inhibitor controls), and curve fits were performed by GraphPad Prism software. The IC50 concentration-response curves were generated for both the ACC1 and ACC2 assays using recombinant human ACC.

[7] = target: PIM3 (Homo sapiens (Human), UniProt Q86V86); experiment: Wild type kinase screen: PIM3; conditions: compound at 10 μM, 10 μM ATP, Data 1 and Data 2 duplicates
[8] = target: c-Kit (Homo sapiens (Human), UniProt P10721); experiment: Wild type kinase screen: c-Kit; conditions: compound at 10 μM, 10 μM ATP, Data 1 and Data 2 duplicates
[9] = target: AURORA C (Homo sapiens (Human), UniProt Q9UQB9); experiment: Wild type kinase screen: AURORA C; conditions: compound at 10 μM, 10 μM ATP, Data 1 and Data 2 duplicates
[10] = target: ERK7/MAPK15 (Homo sapiens (Human), UniProt Q8TD08); experiment: Wild type kinase screen: ERK7/MAPK15; conditions: compound at 10 μM, 10 μM ATP, Data 1 and Data 2 duplicates
[11] = target: MAPKAPK2 (Homo sapiens (Human), UniProt P49137); experiment: Wild type kinase screen: MAPKAPK2; conditions: compound at 10 μM, 10 μM ATP, Data 1 and Data 2 duplicates
[12] = target: human ACLY (Homo sapiens (Human), UniProt P53396); experiment: ATP-citrate lyase (ACLY) enzymatic assay (ADP-Glo); conditions: recombinant human ACLY; 10 concentrations from 300 μM; Runs 1-3; read-out: Compound IC50 (M) ACLY
Procedure: ATP citrate lyase was obtained from Sino Biological Inc. Cat #11769-H07B, Lot #LC08DE1701. It was prepared from a DNA sequence encoding the human ACLY (P53396) (Met 1-Met 1101) expressed in Baculovirus-Insect Cells, with a polyhistidine tag at the N-terminus. The recombinant human ACLY consists of 1120 amino acids and has a calculated molecular mass of 123 kDa. It migrates as an approximately 110 kDa band in SDS-PAGE under reducing conditions. The enzyme came as a lyophilized powder in sterile 20 mM Tris, 500 mM NaCl, pH 8.0, 10% glycine. Normally 5%-8% trehalose and mannitol are added as protectants before lyophilization. The recombinant human ACLY from Sino Biological was formulated in 45 mM Tris-HCl, pH 8.0, 124 mM NaCl, 2.4 mM KCl, 18 mM glutathione, 10% glycerol, and 3 mM DTT.
To detect ADP produced from ACL assay, the ADP-Glo™ assay format from Promega, Madison, WI, was used, to detect the conversion of ATP to ADP. […] This assay is performed in two steps: i) after the ACL-mediated enzymatic reaction that utilizes ATP and produces ADP, ADP-Glo™ Reagent is added to terminate the kinase reaction and deplete the remaining ATP, and ii) the Kinase Detection Reagent is added to convert ADP to ATP and allow the newly synthesized ATP to be measured using a luciferase/luciferin reaction. The light generated, measured in a luminometer, correlates to the amount of ADP generated in the ACL assay, which is indicative of ACL activity.
Data represent nM or μM ADP produced, % Activity (relative to no inhibitor controls), and curve fits were performed by GraphPad Prism software. The IC50 concentration-response curves were generated for ADPGlo™ using recombinant human ACL from Sino Biologicals Inc.

[13] = target: Aurora A (Homo sapiens (Human), UniProt O14965); experiment: Wild type kinase screen: Aurora A; conditions: compound at 10 μM, 10 μM ATP, Data 1 and Data 2 duplicates
[14] = target: LIMK1 (Homo sapiens (Human), UniProt P53667); experiment: Wild type kinase screen: LIMK1; conditions: compound at 10 μM, 10 μM ATP, Data 1 and Data 2 duplicates
[15] = target: BMX/ETK (Homo sapiens (Human), UniProt P51813); experiment: Wild type kinase screen: BMX/ETK; conditions: compound at 10 μM, 10 μM ATP, Data 1 and Data 2 duplicates
[16] = target: NEK2 (Homo sapiens (Human), UniProt P51955); experiment: Wild type kinase screen: NEK2; conditions: compound at 10 μM, 10 μM ATP, Data 1 and Data 2 duplicates
[17] = target: Aurora B (Homo sapiens (Human), UniProt Q96GD4); experiment: Wild type kinase screen: Aurora B; conditions: compound at 10 μM, 10 μM ATP, Data 1 and Data 2 duplicates
[18] = target: MLCK/MYLK (Homo sapiens (Human), UniProt Q15746); experiment: Wild type kinase screen: MLCK/MYLK; conditions: compound at 10 μM, 10 μM ATP, Data 1 and Data 2 duplicates
[19] = target: RIPK4 (Homo sapiens (Human), UniProt P57078); experiment: Wild type kinase screen: RIPK4; conditions: compound at 10 μM, 10 μM ATP, Data 1 and Data 2 duplicates
[20] = target: DDR2 (Homo sapiens (Human), UniProt Q16832); experiment: Wild type kinase screen: DDR2; conditions: compound at 10 μM, 10 μM ATP, Data 1 and Data 2 duplicates
[21] = target: TNIK (Homo sapiens (Human), UniProt Q9UKE5); experiment: Wild type kinase screen: TNIK; conditions: compound at 10 μM, 10 μM ATP, Data 1 and Data 2 duplicates

BMX/ETK, sequence (P51813 whole entry): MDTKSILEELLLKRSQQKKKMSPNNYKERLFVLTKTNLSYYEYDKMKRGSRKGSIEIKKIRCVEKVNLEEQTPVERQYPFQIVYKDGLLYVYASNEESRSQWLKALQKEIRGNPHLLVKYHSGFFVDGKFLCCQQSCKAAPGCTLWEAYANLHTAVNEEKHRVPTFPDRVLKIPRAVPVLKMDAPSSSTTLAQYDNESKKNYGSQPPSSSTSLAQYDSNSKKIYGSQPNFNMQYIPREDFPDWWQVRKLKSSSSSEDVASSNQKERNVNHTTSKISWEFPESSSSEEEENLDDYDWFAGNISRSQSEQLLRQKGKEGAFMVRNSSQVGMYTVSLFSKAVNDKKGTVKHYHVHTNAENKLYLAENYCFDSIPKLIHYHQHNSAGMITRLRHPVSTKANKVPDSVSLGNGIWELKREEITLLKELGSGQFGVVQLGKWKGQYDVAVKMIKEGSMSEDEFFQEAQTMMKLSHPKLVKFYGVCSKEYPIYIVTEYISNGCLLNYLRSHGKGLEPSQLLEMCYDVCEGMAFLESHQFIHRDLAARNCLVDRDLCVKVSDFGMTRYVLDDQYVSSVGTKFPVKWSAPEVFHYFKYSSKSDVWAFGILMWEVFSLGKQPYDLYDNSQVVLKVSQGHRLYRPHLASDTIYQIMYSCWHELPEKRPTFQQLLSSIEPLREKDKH
MELK, sequence (Q14680 whole entry, species assumed): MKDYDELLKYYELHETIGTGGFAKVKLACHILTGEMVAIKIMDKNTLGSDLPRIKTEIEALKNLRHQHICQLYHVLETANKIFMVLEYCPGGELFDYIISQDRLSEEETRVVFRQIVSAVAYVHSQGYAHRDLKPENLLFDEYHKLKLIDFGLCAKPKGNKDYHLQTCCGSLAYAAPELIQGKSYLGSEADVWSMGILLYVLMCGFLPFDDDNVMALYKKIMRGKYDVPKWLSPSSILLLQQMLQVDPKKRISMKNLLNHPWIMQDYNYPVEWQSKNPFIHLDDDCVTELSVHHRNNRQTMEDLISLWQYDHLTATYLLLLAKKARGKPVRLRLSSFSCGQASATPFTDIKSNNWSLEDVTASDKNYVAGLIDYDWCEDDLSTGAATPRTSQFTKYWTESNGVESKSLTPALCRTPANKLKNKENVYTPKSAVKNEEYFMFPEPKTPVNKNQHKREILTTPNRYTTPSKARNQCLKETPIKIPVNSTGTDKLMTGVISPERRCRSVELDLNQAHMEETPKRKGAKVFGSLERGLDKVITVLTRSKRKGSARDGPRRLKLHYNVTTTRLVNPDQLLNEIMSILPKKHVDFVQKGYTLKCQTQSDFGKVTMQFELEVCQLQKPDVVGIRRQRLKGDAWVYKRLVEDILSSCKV
Aurora A, sequence (O14965 whole entry): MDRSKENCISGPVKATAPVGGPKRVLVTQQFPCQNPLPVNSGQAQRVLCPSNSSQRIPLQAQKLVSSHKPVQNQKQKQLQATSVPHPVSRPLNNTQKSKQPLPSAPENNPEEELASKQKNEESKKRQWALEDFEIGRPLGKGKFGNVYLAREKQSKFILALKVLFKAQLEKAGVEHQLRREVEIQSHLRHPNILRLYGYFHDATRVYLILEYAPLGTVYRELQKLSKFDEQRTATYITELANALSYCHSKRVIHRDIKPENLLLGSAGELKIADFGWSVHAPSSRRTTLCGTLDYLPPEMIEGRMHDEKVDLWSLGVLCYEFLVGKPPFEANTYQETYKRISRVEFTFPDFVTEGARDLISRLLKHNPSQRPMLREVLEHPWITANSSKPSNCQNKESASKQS
LIMK1, sequence (P53667 whole entry, species assumed): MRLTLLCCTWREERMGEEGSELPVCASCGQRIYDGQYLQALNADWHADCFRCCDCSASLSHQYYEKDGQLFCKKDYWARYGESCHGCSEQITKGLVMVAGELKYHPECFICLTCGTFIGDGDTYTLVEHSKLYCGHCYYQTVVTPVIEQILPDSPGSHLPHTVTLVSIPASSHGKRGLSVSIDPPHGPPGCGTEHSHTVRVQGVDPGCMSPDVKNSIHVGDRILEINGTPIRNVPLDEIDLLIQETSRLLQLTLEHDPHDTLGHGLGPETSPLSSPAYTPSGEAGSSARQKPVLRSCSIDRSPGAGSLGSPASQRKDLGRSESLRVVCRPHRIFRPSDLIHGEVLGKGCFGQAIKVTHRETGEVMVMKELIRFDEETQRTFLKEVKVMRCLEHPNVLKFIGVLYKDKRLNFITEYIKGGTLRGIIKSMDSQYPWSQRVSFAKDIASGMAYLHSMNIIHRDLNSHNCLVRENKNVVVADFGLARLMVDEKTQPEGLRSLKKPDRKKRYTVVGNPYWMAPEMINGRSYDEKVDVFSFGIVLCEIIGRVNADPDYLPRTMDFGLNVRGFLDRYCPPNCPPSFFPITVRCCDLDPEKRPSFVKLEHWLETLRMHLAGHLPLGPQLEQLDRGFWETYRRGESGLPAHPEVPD
DDR2, sequence (Q16832 22-855, species assumed): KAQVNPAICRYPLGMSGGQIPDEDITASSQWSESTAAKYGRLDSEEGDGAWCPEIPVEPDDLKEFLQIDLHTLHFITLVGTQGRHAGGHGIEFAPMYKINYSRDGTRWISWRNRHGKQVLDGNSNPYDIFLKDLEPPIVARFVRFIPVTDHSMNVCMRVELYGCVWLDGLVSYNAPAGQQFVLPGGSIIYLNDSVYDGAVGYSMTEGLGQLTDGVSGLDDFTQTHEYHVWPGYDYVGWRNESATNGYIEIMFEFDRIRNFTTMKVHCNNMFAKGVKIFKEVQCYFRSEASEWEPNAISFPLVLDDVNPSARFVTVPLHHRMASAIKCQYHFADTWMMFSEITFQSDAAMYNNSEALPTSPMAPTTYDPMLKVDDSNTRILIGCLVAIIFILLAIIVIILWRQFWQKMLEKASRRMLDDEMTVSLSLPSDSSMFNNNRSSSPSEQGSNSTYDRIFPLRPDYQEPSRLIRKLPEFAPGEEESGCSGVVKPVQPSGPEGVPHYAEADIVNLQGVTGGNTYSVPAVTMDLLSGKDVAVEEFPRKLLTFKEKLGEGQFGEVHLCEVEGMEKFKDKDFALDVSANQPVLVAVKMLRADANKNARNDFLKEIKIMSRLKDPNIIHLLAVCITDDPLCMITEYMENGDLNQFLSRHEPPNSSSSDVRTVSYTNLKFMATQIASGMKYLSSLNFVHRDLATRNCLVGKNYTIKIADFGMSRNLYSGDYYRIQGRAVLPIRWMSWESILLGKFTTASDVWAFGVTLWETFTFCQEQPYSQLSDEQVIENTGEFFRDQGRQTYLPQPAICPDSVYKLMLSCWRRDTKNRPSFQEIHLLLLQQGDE
NEK2, sequence (P51955 whole entry, species assumed): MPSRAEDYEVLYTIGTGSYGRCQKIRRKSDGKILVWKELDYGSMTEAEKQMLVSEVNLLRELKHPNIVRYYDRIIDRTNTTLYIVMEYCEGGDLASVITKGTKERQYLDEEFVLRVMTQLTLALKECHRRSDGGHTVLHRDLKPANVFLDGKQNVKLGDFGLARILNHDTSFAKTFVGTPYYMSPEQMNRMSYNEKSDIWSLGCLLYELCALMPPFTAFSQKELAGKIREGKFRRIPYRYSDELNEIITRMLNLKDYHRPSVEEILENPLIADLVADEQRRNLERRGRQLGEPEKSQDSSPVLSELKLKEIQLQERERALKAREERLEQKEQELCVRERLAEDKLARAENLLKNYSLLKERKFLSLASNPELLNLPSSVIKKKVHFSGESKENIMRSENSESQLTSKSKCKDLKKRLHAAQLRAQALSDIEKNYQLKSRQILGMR
human ACLY, sequence (P53396 whole entry): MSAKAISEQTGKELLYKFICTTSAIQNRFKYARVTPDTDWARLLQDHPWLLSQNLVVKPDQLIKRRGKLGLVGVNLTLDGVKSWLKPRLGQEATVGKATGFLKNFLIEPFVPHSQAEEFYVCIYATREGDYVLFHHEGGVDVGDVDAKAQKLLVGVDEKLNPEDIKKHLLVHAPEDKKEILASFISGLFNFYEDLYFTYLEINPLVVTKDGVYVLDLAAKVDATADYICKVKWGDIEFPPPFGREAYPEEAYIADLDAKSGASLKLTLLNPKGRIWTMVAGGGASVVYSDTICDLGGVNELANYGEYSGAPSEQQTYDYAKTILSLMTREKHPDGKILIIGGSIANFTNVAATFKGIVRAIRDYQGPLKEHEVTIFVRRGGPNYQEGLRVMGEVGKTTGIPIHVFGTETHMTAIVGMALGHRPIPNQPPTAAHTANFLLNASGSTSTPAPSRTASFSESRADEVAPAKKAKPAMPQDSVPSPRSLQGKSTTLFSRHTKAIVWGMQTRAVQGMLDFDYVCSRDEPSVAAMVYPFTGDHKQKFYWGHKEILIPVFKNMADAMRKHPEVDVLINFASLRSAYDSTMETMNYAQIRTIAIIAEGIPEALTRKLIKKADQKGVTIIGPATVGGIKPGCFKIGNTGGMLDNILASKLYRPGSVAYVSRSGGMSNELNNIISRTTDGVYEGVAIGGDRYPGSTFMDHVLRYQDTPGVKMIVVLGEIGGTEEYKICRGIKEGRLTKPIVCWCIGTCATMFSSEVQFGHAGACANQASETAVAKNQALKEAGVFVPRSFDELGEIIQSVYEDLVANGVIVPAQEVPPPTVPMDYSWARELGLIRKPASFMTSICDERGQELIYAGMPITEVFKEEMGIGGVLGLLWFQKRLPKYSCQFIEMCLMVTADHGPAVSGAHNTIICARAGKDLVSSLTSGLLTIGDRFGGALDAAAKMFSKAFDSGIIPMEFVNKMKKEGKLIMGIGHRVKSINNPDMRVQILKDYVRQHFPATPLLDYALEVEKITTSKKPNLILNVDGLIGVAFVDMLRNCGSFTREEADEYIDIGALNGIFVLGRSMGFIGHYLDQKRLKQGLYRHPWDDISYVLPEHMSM

Compound | % Enzyme Activity (relative to DMSO controls) [1] | % Enzyme Activity (relative to DMSO controls) [2] | % Enzyme Activity (relative to DMSO controls) [3] | IC50 [4] | % Enzyme Activity (relative to DMSO controls) [5] | IC50 [6] | % Enzyme Activity (relative to DMSO controls) [7] | % Enzyme Activity (relative to DMSO controls) [8] | % Enzyme Activity (relative to DMSO controls) [9] | % Enzyme Activity (relative to DMSO controls) [10] | % Enzyme Activity (relative to DMSO controls) [11] | IC50 [12] | % Enzyme Activity (relative to DMSO controls) [13] | % Enzyme Activity (relative to DMSO controls) [14] | % Enzyme Activity (relative to DMSO controls) [15] | % Enzyme Activity (relative to DMSO controls) [16] | % Enzyme Activity (relative to DMSO controls) [17] | % Enzyme Activity (relative to DMSO controls) [18] | % Enzyme Activity (relative to DMSO controls) [19] | % Enzyme Activity (relative to DMSO controls) [20] | also measured
CC(C)(CCCCc1cccc(CCCCC(C)(C)C(=O)SCCNC(=O)CCNC(=O)[C@H](O)C(C)(C)COP(=O)(O)OP(=O)(O)OC[C@H]2O[C@@H](n3cnc4c(N)ncnc43)[C@H](O)[C@@H]2OP(=O)(O)O)c1)C(=O)O [Compound I-32-CoA, 6-[3-(5—Carboxy-5-methylhexyl)-phenyl]-2,2-dimethylhexanoic acid Coenzyme A Ester] | 23.69% and 22.51% | 28.56% and 27.35% | 35.05% and 34.20% | 5.07e-06 M and 5e-06 M and 6.03e-06 M | 52.06% and 51.61% | 5.02e-06 M and 4.22e-06 M and 3.33e-06 M | 51.10% and 43.67% | 49.53% and 49.21% | 48.46% and 46.83% | 88.39% and 80.61% | 17.17% and 15.90% | 9.88e-07 M and 1.22e-06 M and 1.44e-06 M | 13.04% and 11.95% | 47.31% and 45.01% | 49.54% and 43.87% | 35.98% and 34.99% | 33.27% and 30.67% | 3.21% and 1.59% | 33.02% and 32.84% | 29.98% and 25.40% | % Enzyme Activity (relative to DMSO controls) [21]: 70.02% and 66.13%
CC(C)(CCCCc1ccc(CCCCC(C)(C)C(=O)SCCNC(=O)CCNC(=O)[C@H](O)C(C)(C)COP(=O)(O)OP(=O)(O)OC[C@H]2O[C@@H](n3cnc4c(N)ncnc43)[C@H](O)[C@@H]2OP(=O)(O)O)cc1)C(=O)O [Compound I-1-CoA, 6-[4-(5-carboxy-5-methylhexyl)-phenyl]-2,2-dimethylhexanoic acid Coenzyme A ester] | 63.29% and 62.44% | 23.02% and 21.99% | 53.91% and 53.05% | 1.63e-05 M and 1.33e-05 M and 1.25e-05 M | 84.17% and 82.94% | 9.41e-06 M and 7.72e-06 M and 9.06e-06 M | 73.92% and 70.32% | 73.56% and 73.24% | 78.81% and 72.15% | 51.57% and 45.02% | 85.04% and 84.66% | 3.34e-06 M and 2.28e-06 M and 2.5e-06 M | 12.44% and 12.42% | 77.88% and 76.61% | 49.55% and 47.76% | 0.89% and 0.63% | 36.79% and 32.68% | 2.06% and −0.71% | 32.26% and 29.70% | 88.28% and 79.94% | % Enzyme Activity (relative to DMSO controls) [21]: 39.22% and 36.50%
